From the supplement of paper PMC10307832

Legend:
Experiment in all cases: relative viability (nuclei count vs DMSO), 5 days (fraction); higher = more cells survive
[1] = compound: CCCS(=O)(=O)Nc1ccc(F)c(C(=O)c2c[nH]c3ncc(-c4ccc(Cl)cc4)cc23)c1F [Vemurafenib] + COc1cccc2cc(-c3nc([C@H]4CC[C@H](C(=O)O)CC4)n4ncnc(N)c34)[nH]c12 [OSI-027] (partner 0.5 µM)
In short: (§1)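 Lung cancer cell lines were seeded in 1536-well plates and dosed by pin tool the next day, with either a single drug or a fixed anchor-drug dose combined with five library-drug doses (not always all listed) spaced in √10 steps. Five days later, one step fixed the cells and stained their nuclei (final 0.05% Triton X-100, 1% formaldehyde, 1 ug/ml Hoechst), and nuclei were counted on 4× images. Relative viability is the nuclei count in treated wells divided by the count in vehicle wells, and each value is the median of duplicate plates.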

[2] = compound: COc1cccc2cc(-c3nc([C@H]4CC[C@H](C(=O)O)CC4)n4ncnc(N)c34)[nH]c12 [OSI-027] + Cc1nc(NC(=O)N2CCC[C@H]2C(N)=O)sc1-c1ccnc(C(C)(C)C(F)(F)F)c1 [Alpelisib] (partner 2 µM)
In short: as §1

[3] = compound: CCCS(=O)(=O)Nc1ccc(F)c(C(=O)c2c[nH]c3ncc(-c4ccc(Cl)cc4)cc23)c1F [Vemurafenib] + CC(=O)c1c(C)c2cnc(Nc3ccc(N4CCNCC4)cn3)nc2n(C2CCCC2)c1=O [Palbociclib] (partner 0.5 µM)
In short: as §1

[4] = compound: CCCS(=O)(=O)Nc1ccc(F)c(C(=O)c2c[nH]c3ncc(-c4ccc(Cl)cc4)cc23)c1F [Vemurafenib] + CC(C)C[C@H](NC(=O)[C@H](Cc1ccccc1)NC(=O)c1cnccn1)B(O)O [Bortezomib] (partner 0.002 µM)
In short: as §1

UMC-11
relative viability ([1]; first compound 0.03162 µM): 0.541
relative viability ([1]; first compound 0.1 µM): 0.519
relative viability ([1]; first compound 0.3162 µM): 0.411
relative viability ([1]; first compound 1 µM): 0.44
relative viability ([2]; first compound 0.01 µM): 1.09
relative viability ([2]; first compound 0.03162 µM): 0.818
relative viability ([2]; first compound 0.1 µM): 0.881
relative viability ([2]; first compound 0.3162 µM): 0.597
relative viability ([2]; first compound 1 µM): 0.49
relative viability ([3]; first compound 0.03162 µM): 0.328
relative viability ([3]; first compound 0.1 µM): 0.313
relative viability ([3]; first compound 1 µM): 0.315
relative viability ([4]; first compound 0.03162 µM): 0.468
relative viability ([4]; first compound 0.1 µM): 0.713
relative viability ([4]; first compound 0.3162 µM): 0.57
relative viability ([4]; first compound 1 µM): 0.296
